Source: patent US7312322B1, “Genetic sequences encoding steroid and juvenile hormone receptor polypeptides and insecticidal modalities therefor” (priority 1998, dated 2007)
Several values for one entry are separate records, joined by “and”; a condition that tells them apart may be missing. Equal entries are not always repeated.

Target: T1, EcR polypeptide subunit of the D. melanogaster ecdysone receptor (Drosophila melanogaster, UniProt P34021)
T1 construct: expressed in transfected cells; host or cells: CHO cells
T1 sequence (P34021 1-878): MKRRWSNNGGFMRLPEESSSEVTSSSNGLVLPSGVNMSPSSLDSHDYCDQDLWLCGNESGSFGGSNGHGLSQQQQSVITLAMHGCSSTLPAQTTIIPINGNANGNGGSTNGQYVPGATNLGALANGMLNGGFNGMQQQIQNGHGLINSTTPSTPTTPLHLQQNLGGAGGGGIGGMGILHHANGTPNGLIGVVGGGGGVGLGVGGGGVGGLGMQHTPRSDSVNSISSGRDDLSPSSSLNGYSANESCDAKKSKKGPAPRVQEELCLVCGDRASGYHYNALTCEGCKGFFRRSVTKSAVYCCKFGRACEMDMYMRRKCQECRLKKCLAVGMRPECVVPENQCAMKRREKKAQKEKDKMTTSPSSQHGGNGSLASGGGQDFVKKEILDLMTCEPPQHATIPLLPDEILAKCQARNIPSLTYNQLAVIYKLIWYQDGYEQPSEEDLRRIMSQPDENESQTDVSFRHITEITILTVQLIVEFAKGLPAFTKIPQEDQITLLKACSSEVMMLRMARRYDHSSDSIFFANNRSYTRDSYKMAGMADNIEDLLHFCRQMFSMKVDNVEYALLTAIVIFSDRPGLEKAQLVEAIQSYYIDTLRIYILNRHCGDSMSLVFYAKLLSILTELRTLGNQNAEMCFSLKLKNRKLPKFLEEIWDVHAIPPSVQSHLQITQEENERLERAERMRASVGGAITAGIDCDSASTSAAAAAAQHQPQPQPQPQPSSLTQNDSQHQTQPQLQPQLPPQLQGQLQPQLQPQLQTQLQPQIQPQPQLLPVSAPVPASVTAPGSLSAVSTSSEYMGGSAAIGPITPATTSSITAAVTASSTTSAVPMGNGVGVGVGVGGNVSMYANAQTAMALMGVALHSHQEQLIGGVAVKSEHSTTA
Assay: CHO cell co-transfection CAT reporter assay, pSV40-EcR with p(EcRE)7-CAT
Format: cell-based
Conditions: for Fold-induction of expression: 30° C., PNA 20 μM, CHO cells
Experimental: Chinese hamster ovary (CHO) cells were maintained in 50% (v/v) Dubbecco's modified Eagle's medium (DMEM) and 50% (v/v) Hamm F12 nutrient mixture (GIBCO) supplemented with 10% (v/v) foetal bovine serum. Transfection was carried out by the DNA-calcium phosphate co-precipitation method (Ausubel et al, 1992). One day before transfection with the plasmids described in Examples 1 and/or 2, or other expression plasmids, CHO cells were plated out at 5-8×10^5 cells per 6 cm diameter culture dish in the above DMEM/F12 medium. Three hours before the addition of the DNA-calcium phosphate co-precipitate, the cells were washed with phosphate buffered saline (PBS; Sambrook et al., 1989) and cultured in fresh DMEM plus 10% (v/v) foetal bovine serum. The cells were incubated in the presence of the co-precipitate for eighteen hours before excess DNA was removed by washing with PBS. The cells were then cultured for another day in DMEM/F12 supplemented with 10% (v/v) foetal bovine serum with or without added ponasterone A (PNA), before harvesting. Cells were washed with PBS, harvested by mechanical scraping in 0.25 M Tris-HCl (pH 7.8), and disrupted by three freeze-thaw cycles.
All transfections included, in addition to expression and reporter plasmids, a β-galactosidase-expressing plasmid designated pPgK-LacZ (McBurney et al, 1991), which served as an internal control for the efficiency of transfection, and pUC18 DNA in an amount sufficient to produce 10 μg total DNA per culture dish.
The chloramphenicol acetyltransferase (CAT) and β-galactosidase activities encoded by the reporter genes present in the reporter plasmids were assayed as described in Sambrook et al, (1989).
To determine whether the D. melanogaster ecdysone receptor polypeptide is stable at physiological temperatures above about 30° C., CHO cells were transfected as described in Example 3, with the plasmid pSV40-EcR and the reporter plasmid p(EcRE)7-CAT in the presence of PNA, at 30° C. and 37° C.
Briefly, CHO cells were plated out at 37° C. sixteen to twenty hours before transfection. After washing away the DNA, the cells were cultured for two hours in fresh medium with or without hormone and the dishes divided into duplicate sets. One set was cultured for another day at 37° C. before harvesting for CAT and β-galactosidase assays. The other set was cultured for three days at 30° C. before assaying enzyme activities. Results indicated a reduction in the fold-induction of gene expression regulated by the D. melanogaster ecdysone receptor polypeptide at 37° C., compared to the fold-induction at 30° C., as shown in Table 1.

Q: For CC(C)CC[C@@H](O)[C@](C)(O)[C@H]1CC[C@@]2(O)C3=CC(=O)[C@@H]4C[C@@H](O)[C@@H](O)C[C@]4(C)[C@H]3CC[C@]12C [PNA, ponasterone A], which Fold-induction of expression (pSV40-EcR 0.1 μg/dish) is on record?
A: 39X and 25X

Q: What about the Fold-induction of expression (pSV40-EcR 0.5 μg/dish) of the same compound?
A: 26X and 33X

Q: What about the Fold-induction of expression (pSV40-EcR 2.5 μg/dish) of the same compound?
A: 35X and 54X

Q: What about the “induction of CAT activity” value (CHO cells co-transfected with p(EcRE)7-CAT and pSV40-EcR, in the presence of PNA) of the same compound?
A: 50 units of activity
